Experimental data: patent US7868181B2, “Compounds” (AstraZeneca AB, priority 2007, dated 2011)
pIC50: −log10 of the molar value.

Key:
human VR1 = biological target: T1, human VR1 (Homo sapiens, UniProt Q8NER1); assay: hVR1 FLIPR screening assay, IC50 determination (capsaicin); type: cell-based; conditions: CHO cells stably expressing hVR1; agonist capsaicin
T1 construct: expressed in transfected cells; host or cells: CHO cells
Procedure: hVR1FLIPR (Fluorometric Image Plate Reader) Screening Assay
Transfected CHO cells, stably expressing hVR1 (15,000 cells/well) are seeded in 50 μL media in a black clear bottom 384 plate (Greiner) and grown in a humidified incubator (37° C., 2% CO2), 24-30 hours prior to experiment.
Subsequently, the media is removed from the cell plate by inversion and 2 μM Fluo-4 is added using a multidrop (Labsystems). Following the 40 min dye incubation in the dark at 37° C. and 2% CO2, the extracellular dye present is washed away using an EMBLA (Scatron), leaving the cells in 40 μL of assay buffer (1×HBSS, 10 mM D-Glucose, 1 mM CaCl2, 10 mM HEPES, 10×7.5% NaHCO3 and 2.5 mM Probenecid).
FLIPR Assay—IC50 Determination Protocol
For IC50 determinations the fluorescence is read using FLIPR filter 1 (em […]). A cellular baseline recording is taken for 30 seconds, followed by a 20 μL addition of 10, titrated half-log concentrations of the test compound, yielding cellular concentration ranging from 3 μM to 0.1 nM. Data is collected every 2 seconds for a further 5 min prior to the addition of a VR1 agonist solution: either 50 nM solution of capsaicin or MES (2-[N-morpholino] ethanesulfonic acid) buffer (pH 5.2), by the FLIPR pipettor. The FLIPR continues to collect data for a further 4 min. Compounds having antagonistic properties against the hVR1 will inhibit the increase in intracellular calcium in response to the capsaicin addition. This consequently leading to a reduction in fluorescence signal and providing a reduced fluorescence reading, compared with no compound, buffer controls. Data is exported by the FLIPR program as a sum of fluorescence calculated under the curve upon the addition of capsaicin. Maximum inhibition, Hill slope and IC50 data for each compound are generated.

aldose reductase = biological target: T2, aldose reductase (Rattus norvegicus, UniProt P07943); assay: comparative aldose reductase activity determination (MDS Pharma Services); type: biochemical; conditions: carried out by MDS Pharma Services
T2 construct: MDS Pharma Services - Taiwan Ltd (contract laboratory that ran the assay)
Procedure: A comparative aldose reductase activity determination was carried out by the company MDS Pharma Services—Taiwan Ltd; the results of that study is set forth in Table 1 below.

[1] = test system: carrageenan-induced heat hyperalgesia; assay: Carrageenan model, heat plantar test (paw withdrawal latency); type: in vivo; conditions: rat, oral
[2] = test system: FCA-induced heat hyperalgesia; assay: Freund's Complete Adjuvant (FCA) model, heat plantar test (paw withdrawal latency); type: in vivo; conditions: rat, oral
[3] = tested at Tmax, reversal of heat hyperalgesia

T1 sequence (Q8NER1 whole entry): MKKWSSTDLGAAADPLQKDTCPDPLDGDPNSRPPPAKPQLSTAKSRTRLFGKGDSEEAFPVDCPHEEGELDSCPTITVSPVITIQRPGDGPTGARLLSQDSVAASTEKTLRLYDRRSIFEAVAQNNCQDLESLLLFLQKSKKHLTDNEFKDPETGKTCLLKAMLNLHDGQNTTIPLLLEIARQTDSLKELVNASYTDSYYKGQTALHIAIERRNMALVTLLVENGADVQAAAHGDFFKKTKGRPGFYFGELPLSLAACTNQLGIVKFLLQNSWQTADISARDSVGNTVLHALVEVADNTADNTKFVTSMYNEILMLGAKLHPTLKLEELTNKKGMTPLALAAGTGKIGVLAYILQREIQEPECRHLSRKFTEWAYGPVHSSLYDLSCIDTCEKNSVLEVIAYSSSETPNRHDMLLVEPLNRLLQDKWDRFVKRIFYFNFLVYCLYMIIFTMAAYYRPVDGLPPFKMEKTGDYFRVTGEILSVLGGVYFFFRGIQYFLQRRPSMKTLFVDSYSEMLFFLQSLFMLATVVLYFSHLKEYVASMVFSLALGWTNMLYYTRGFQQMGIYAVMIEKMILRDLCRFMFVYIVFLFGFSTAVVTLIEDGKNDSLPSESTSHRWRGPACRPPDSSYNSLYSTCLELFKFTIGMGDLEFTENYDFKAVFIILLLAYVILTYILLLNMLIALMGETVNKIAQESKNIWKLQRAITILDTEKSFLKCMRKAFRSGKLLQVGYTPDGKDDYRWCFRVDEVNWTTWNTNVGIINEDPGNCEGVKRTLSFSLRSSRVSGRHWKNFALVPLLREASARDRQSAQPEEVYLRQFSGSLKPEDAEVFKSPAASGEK

Row | Structure (SMILES) | pIC50 (human VR1) | pIC50 (aldose reductase) | further results
1 | O=C1NC(=O)[C@]2(N1)C(=O)N(C/C=C/c1ccc(Cl)c(Cl)c1)c1ccccc12 (single isomer, unassigned) [Enantiomer 1A] | 5.00 | 7.60 | –
2 | O=C1NC(=O)[C@]2(N1)C(=O)N(C/C=C/c1ccc(Cl)c(C(F)(F)F)c1)c1ccccc12 (single isomer, unassigned) [Enantiomer 2A] | 5.41 | 7.48 | –
3 | O=C1NC(=O)[C@]2(N1)C(=O)N(CC#Cc1ccc(Cl)c(Cl)c1)c1ccccc12 (single isomer, unassigned) [Enantiomer 3A] | 4.81 | 7.14 | –

Stronger by pIC50 (human VR1), values ahead:

Row | pIC50 (human VR1) | pIC50 (aldose reductase) | Structure (SMILES) | further results
4 | 7.37 | 6.12 | O=C1NC(=O)[C@@]2(N1)C(=O)N(C/C=C/c1ccc(Cl)c(Cl)c1)c1ccccc12 (single isomer, unassigned) [Enantiomer 1B] | Extrapolated Emax ([1]; non-linear regression): 88%; EC80 ([1]; reversal of heat hyperalgesia): 10700 nM; Emax observed ([1]; reversal of heat hyperalgesia): 76%; EC50 [1, 3]: 4800 nM; ED50 [1, 3]: 10.6 µmol/kg; Extrapolated Emax ([2]; non-linear regression): >100%; EC80 ([2]; reversal of heat hyperalgesia): 100000 nM; Emax observed ([2]; reversal of heat hyperalgesia): 100%; EC50 [2, 3]: 24000 nM; ED50 [2, 3]: 52.8 µmol/kg
5 | 6.62 | 5.48 | O=C1NC(=O)[C@@]2(N1)C(=O)N(C/C=C/c1ccc(Cl)c(C(F)(F)F)c1)c1ccccc12 (single isomer, unassigned) [Enantiomer 2B] | –
6 | 6.06 | 6.01 | O=C1NC(=O)[C@@]2(N1)C(=O)N(CC#Cc1ccc(Cl)c(Cl)c1)c1ccccc12 (single isomer, unassigned) [Enantiomer 3B] | –
